Test system: cirrhotic patients with HE
Experiment: Comparison within the HE group: cognitive battery (PHES, block design, ICT) (Example 1)
Type: in vivo, human
Conditions: HE patients on therapy, mean ± SD
Method: All subjects underwent a mini-mental status exam and only those scoring above 25 were included in the full study (11). Participants then underwent a 24-hour dietary recall. Subsequently a recommended cognitive battery consisting of the following tests was administered to the cirrhotic patients; (a) Psychometric hepatic encephalopathy score (PHES), (b) block design test (BDT: subjects are required to replicate standardized designs with given blocks in a timed manner. The score is based on the designs correctly copied) and (c) Inhibitory control test. [This is a 15 minute computerized test. Subjects are instructed to respond to alternating presentations of X and Y on the screen (targets) while inhibiting response when X and Y are not alternating (lures)] (3, 41). The PHES consists of 5 tests: number connection test-A/B (NCT-A/B: subjects are asked to “join the dots” between numbers or numbers and alphabets in a timed fashion and the number of seconds required is the outcome), digit symbol (DST: subjects are required to copy corresponding figures from a given list within 2 minutes and the number correctly copied is the result), line drawing [LDTt (time) and LDTe (errors): subjects are required to trace a line between two parallel lines and balance between speed and accuracy. Time required and the number of times the subject's line strays beyond the marked lines (errors) are recorded] and serial dotting (SDT, subjects are asked to dot the center of a group of blank circles and the time required is the outcome)]. The PHES is a validated battery for cognitive dysfunction in cirrhosis and tests for psychomotor speed, visuo-motor coordination, attention and set-shifting(32). The BDT tests for visuo-motor coordination. The ICT is a validated computerized test of attention, psychomotor speed, response inhibition and working memory. A high score on BDT, DST and ICT targets and a low score on the rest of the tests indicates good cognitive performance. Cirrhotic patients also underwent serum collection for inflammatory cytokines testing for innate immunity [IL-1b, IL-6, TNF-α (tumor necrosis factor-alpha)], Th1 response ([IFN-γ (interferon-gamma) and IL-2], Th2 response (IL-4, IL-10, IL-13], Th17 response (IL-17 and IL-23), and endotoxin. These were analyzed in duplicate by multiplex bead-based sandwich ELISA and LAL assay for endotoxin using published techniques by AssayGate Inc, Ijamsville, Md. (4, 17, 45).
The cirrhosis group was divided into those with and without HE and were compared. Data from the significant variables between HE and non-HE groups were combined in a MANOVA model. Within HE patients, comparison was made between those on lactulose alone to those with lactulose and rifaximin. Microbiome abundance comparisons between groups were made at a family level using non-parametric tests. A comparison was performed between patients on and withdrawn off of lactulose therapy using the Wilcoxon matched-pair signed rank tests. All values are presented as mean±standard deviation unless mentioned otherwise.

Q: Which results are given for `OC[C@H]1O[C@@H](O[C@@H]2[C@@H](CO)OC(O)(CO)[C@H]2O)[C@H](O)[C@@H](O)[C@H]1O` (mixture of isomers) [lactulose]?
A: ICT targets (high = good cognition): 90.6 ± 8.64%; block design (high = good cognition): 24.9 ± 24.8 score; digit symbol (high = good cognition): 36.5 ± 14.0 score; ICT lures (high = poor cognition): 17.4 ± 10.8 number; Line drawing errors (high = poor cognition): 28.0 ± 18.6 score; Line drawing time (high = poor cognition): 106.9 ± 54.5 s; number connection-A (high = poor cognition): 55.2 ± 34.1 s; number connection-B (high = poor cognition): 189 ± 127 s; serial dotting (high = poor cognition): 88.7 ± 29.2 s

Reference: US20140179726A1, “GUT MICROFLORA AS BIOMARKERS FOR THE PROGNOSIS OF CIRRHOSIS AND BRAIN DYSFUNCTION” (priority 2011, published 2014)
